What was measured:
SKH-1 hairless mice [1] = assay: Hairless mouse assay: epidermal bromodeoxyuridine (BrdU) staining; format: in vivo
Description: This study determined the effect of topical compound formulations on epidermal cell proliferation using bromodeoxyuridine as an immunohistochemical marker of cell proliferation. Histological examination of the treated and control skin were used to determine cutaneous effects of the topical compounds. Topical tretinoin 0.05% (Renova™) was used as a therapeutic control.
(§1) Experimental Design. 48 female SKH-1 hairless mice (5 weeks old, 20-25 grams, Charles River Laboratories, Wilmington, Mass.) are individually housed in filter-top cages, and acclimated for 5-7 days after delivery. The mice are divided into 8 treatment groups (n=6), including two different control groups (untreated control, vehicle control) and a therapeutic control (tretinoin 0.05% Renova™ cream). Cage cards are marked to indicate treatment groups 1-8. Water and mouse chow are provided ad libitum.
(§2) Topical Treatments. Beginning on Treatment Day 1, test products are applied topically each morning (Monday through Friday) after erythema evaluations for 3 weeks. Using a positive displacement pipette, 20 mg of each agent is applied to a 2 cm×2 cm area of the center midline of the back. The material was spread across the treatment area with the pipette tip.
Bromodeoxyuridine Injection. All animal groups are injected with bromodeoxyuridine (100 mg/kg) I.P. 4 hours after the final application. Animals are sacrificed by CO2 inhalation 3 hours later followed by cervical dislocation. The test sites are excised, and 6 mm punch biopsies are obtained from each treatment site, and from untreated controls. Biopsies are placed into labeled vials containing 4% neutral buffered formalin for paraffin embedding and anti-BrdU staining.
Bromodeoxyuridine Immunohistochemical Staining. Paraffin sections are cut to a […] thickness and stained using the BrdU Immuno-histochemistry kit (X1545K from Exalpha Biologicals, Inc.) and a standard staining protocol. The slides are weakly counterstained in Mayer's hematoxylin and scored under a light microscope for the number of BrdU-positive cells per mm of epidermis for each section. The data are expressed as mean BrdU-positive cells/mm for each treatment group. Differences in BrdU labeling in the treatment groups are statistically analyzed using the Students t-test. Representative photographs are taken of the histological sections of the BrdU-positive staining cells.

[2] = tested on: Salmonella typhimurium histidien auxotrophs TA98 and TA100; assay: Ames test; format: cell-based; conditions: 2.5-5000 μg/plate, presence and absence of Aroclor-induced rat liver S9
Method: Ames Test. A number of tests related to the safety of these inventive compounds have been carried out using conventionally accepted protocols and procedures. Tests were carried out using DMSO as solvent and dose levels of 8-amino-6-furfurylaminopurine at 2.5, 5.0, 15, 50, 500, 1500, and 5000 μg/plate based upon standard protocol and procedures (Ames et al., Mutation Research, 31, 347-364 (1975); Maron et al., Mutation Research, 113, 173-215 (1983)).

[3] = tested on: lysosomes of human skin fibroblasts; assay: Lysosomal staining (Neutral Red); format: cell-based; conditions: treated cells compared to the controls
Method: (§3) All cell culture experiments were performed on early and mid passage cultures (about 20 to 40% lifespan completed) of normal human skin fibroblast line, designated ASF-2. In order to check the effects of test compounds on senescent cells, late passage cells with more than 90% lifespan completed were used. ASF-2 cell line was established from a mammary skin biopsy obtained from a young, non-smoking and healthy […] at the time of breast reduction operation. Normal culture conditions of medium (DMEM) containing antibiotics, 10% foetal calf serum, and incubation at 37° C. with 95% humidity were used. The effects of the test compounds were determined using the following procedures.
Lysosomal activity. Neutral Red is preferentially taken up into the lysosomes of the cell. Fibroblast cells are maintained in culture and exposed to test compounds over a range of concentrations. The cultures are visually examined after 72 hours, and the number of viable cells and/or the total cell protein content determined, after 72 hours exposure, by the Neutral Red Uptake method. Advantage of Neutral Red assay is that it detects only viable cells. Any material having a localized effect upon the lysosomes will, therefore, result in an artificially low (or possibly high) reflection of cell viability and cell number. […]

SKH-1 hairless mice [4] = assay: Hairless mouse assay: skin moisture content; format: in vivo
Description: Evaluation of cutaneous effects of new topical compounds in the hirless mouse assay. The purpose of this study was to evaluate new topical compounds for their safety and efficacy as topical skin anti-aging treatments. The hairless mouse model is a well established model for studying the treatments of photoaging. […] The present study was used to investigate a new class of anti-aging compounds in comparison to classical ones. […] Topical compounds and vehicle controls were be applied daily (Monday-Friday) for 3 weeks to the dorsal skin of hairless mice. At baseline (prior to the 1st treatment), and weekly, the dorsal skin was measured for: transepidermal water loss (TEWL); skin moisture content; and skin elasticity.
as §1
Skin Moisture Content & Elasticity. The measurements of skin moisture content and skin elasticity are important noninvasive methods used to characterize the effects of moisturizers and anti-wrinkle effects on skin. A DermaLab™ combination instrument were used to measure the skin moisture content and elasticity of the target skin sites at baseline and at weekly intervals. This instrument is equipped with dual probes which are placed on the skin surface and a quantitative measurement taken of the respective parameters and the measurements recorded on an integrated computer. Mean measurements was determined for each treatment group over time, and comparative statistics used to evaluate product effectiveness.
as §2

[5] = tested on: human skin fibroblast line ASF-2; assay: Short-term growth of human skin fibroblasts; format: cell-based; conditions: for cellular growth: 200 to 500 μM
Method: Experimental Procedures. A stock solution of 4 mM for 6-furfurylamino-8-aminopurine and 8 mM for other compounds were prepared by dissolving about […] per ml 1N HCl, followed by its appropriate dilution by the addition of Hank's buffer. The stock solution was filter sterilized, stored at 4° C., and was used for experiments by dilution it in the cell culture medium as required.
as §3
Growth characteristics. Short-term growth experiments were performed using 24-well tissue culture plates (growth area 1.9 cm^2). Freshly prepared cell suspensions from mass cultures of ASF-2 cells maintained in our labs were used. About 10,000 cells were seeded into 6 sets of 24-well plates. The cells were allowed to attach and stabilize for 24 hr in normal culture medium to achieve various final concentrations (range 40 to 500 μM). Culture medium was changed with the addition of test chemicals twice a week. The numbers of cells were counted after different days of treatment in 2 wells from each concentration of the test chemical, by following the normal method of cell trypsinization and counting using a Coultercounter. The third well in each category was fixed by cold methanol and stained with Giemsa stain for permanent record and for photography. The experiment was carried on for until the cultures became fully confluent and no further growth was possible.

Compound: Nc1nc2c(NCc3ccco3)ncnc2[nH]1 [Compound 82, 6-furfurylamino-8-aminopurine]
- epidermal BrdU staining (SKH-1 hairless mice [1]; after 3 weeks of topical treatment): more effective
- Mean Nuclei Stained (SKH-1 hairless mice [1]; epidermal BrdU staining after 3 weeks of topical treatment, 0.1% (tretinoin 0.05%)): 12.8 ± 13.3
- mutagenic responses [2]: no positive mutagenic responses
- lysosomes (Neutral Red staining) [3]: larger and more numerous
- mean moisture content (SKH-1 hairless mice [4]; at week 3): most effective
- average moisture content (SKH-1 hairless mice [4]; compared with the vehicle): higher than that of the vehicle
- Cell growth ([5]; 80 μM vs untreated): similar
- cellular growth [5]: significantly inhibited
- cellular growth ([5]; after 9 days): almost a total inhibition

Source: patent US20130072506A1, “6,8-DISUBSTITUTED PURINE COMPOSITIONS” (priority 2011, published 2013)
